Laboratory results as given in US10421782B2, “Cyclic cationic peptides with antimicrobial activity” (I.C.F. S.R.L., priority 2012, dated 2019).
In brackets after ≈: the same amount, converted by molar mass. Like-named read-outs stand apart in the source and are kept apart here. Where a SMILES comes first, the peptide text is derived from it. Bridges are numbered along the chain shown (N, C = ends).

Experiments:
[1] = test system: Escherichia coli ATCC 25922; format: cell-based
Experimental: (§1) For each bacterial strain, 3-5 morphologically similar colonies were drawn from fresh cultures, inoculated in Brain Hearth Infusion broth liquid medium and incubated at the temperature of 37° C. under shaking at 225 r.p.m. for 3-4 h. Subsequently, the bacterial suspension was centrifuged at 1000 g for 20 min and the thus obtained pellet was resuspended in phosphate buffer 10 mM. Turbidity was measured in a spectrophotometer with absorbance at 600 nm, equivalent in the range 0.08-0.13 to a concentration of about 10^8 CFU/ml. The bacterial suspension was diluted 1:100 in phosphate buffer 10 mM, and within 30 min 50 microliters of such bacterial suspension (10^6 CFU/ml) were inoculated in each well of the microtiter plate, to obtain a final bacterial concentration of about 5×10^5 CFU/ml.
(§2) Several peptides were tested for their ability to inhibit bacterial growth in liquid culture. Fifty microliters of peptide at a concentration comprised between about 0.2 mM and 50 mM were added in 96-well U-bottom plates containing liquid growth medium and one of the following bacteria: Escherichia coli ATCC 25922, P. aeruginosa ATCC 27853, Stenotrophomonas maltophilia ATCC 13637. After 2 hour incubation at 37° C., bacteria were transferred on a solid medium. As a growth control, bacterial cultures were cultured in the absence of peptides.
(§3) The bacterial suspension was put in contact for two hours with different concentrations of the peptide at the temperature of 37° C. After incubation, 20 μl were drawn from the wells of each dilution and seeded on solid medium, agar McConkey. The inoculum was evenly distributed on the agarized medium by means of a sterile disposable loop. After incubation for 24 h at the temperature of 37° C., counting of the bacterial colonies (CFU) was performed.

[2] = test system: Pseudomonas aeruginosa ATCC 27853; format: cell-based
Experimental: as §1, §2, §3

[3] = further tests, test of Table 2a

| Compound | MBC E. coli ATCC 25922 ([1]; ATCC 25922) [µg/mL] | MBC P. aeruginosa ATCC 27853 ([2]; ATCC 27853) [µg/mL] | MBC E. coli ATCC 25922 [1, 3] | MBC P. aeruginosa ATCC 27853 [2, 3] |
| --- | --- | --- | --- | --- |
| CC[C@H](C)[C@H](NC(=O)[C@H](C)N)C(=O)N[C@H]1CSSC[C@@H](C(=O)N[C@@H](CCCCN)C(=O)O)NC(=O)[C@H](C)NC(=O)[C@H](CCCCN)NC(=O)[C@H](Cc2c[nH]c3ccccc23)NC(=O)[C@H](CCCCN)NC(=O)[C@H](Cc2c[nH]cn2)NC(=O)CNC(=O)[C@H](CCCNC(=N)N)NC(=O)[C@H](Cc2ccc(O)cc2)NC(=O)[C@H](CCCCN)NC(=O)[C@H](Cc2c[nH]c3ccccc23)NC(=O)[C@H]([C@@H](C)O)NC(=O)[C@H](CCCNC(=N)N)NC1=O [SEQ.ID.NO.: 4, Ala*Ile*Cys*Arg*Thr*Trp*Lys*Tyr*Arg*Gly*His*Lys*Trp*Lys*Ala*Cys*Lys*] (H-AICRTWKYRGHKWKACK-OH; disulfide 3-16; N-terminus and C-terminus assumed) | 17.37 (≈ 8.14 µM) | 1.14 (≈ 0.534 µM) |  |  |
| N=C(N)NCCC[C@@H]1NC(=O)[C@H](Cc2ccccc2)NC(=O)[C@H](CCCNC(=N)N)NC(=O)[C@H](Cc2ccc(O)cc2)NC(=O)[C@@H]2CCCN2C(=O)[C@H](Cc2ccccc2)NC(=O)[C@@H](NC(=O)[C@H](CCCCN)NC(=O)[C@@H](N)CCCNC(=N)N)CSSC[C@@H](C(=O)N[C@@H](Cc2ccc(O)cc2)C(=O)O)NC(=O)[C@H](CCCCN)NC(=O)[C@H](CCCCN)NC(=O)[C@H](Cc2ccccc2)NC(=O)[C@H](CCCNC(=N)N)NC(=O)[C@H](CCCCN)NC(=O)CNC1=O [SEQ.ID.NO.: 5, Arg*Lys*Cys*Phe*Pro*Tyr*Arg*Phe*Arg*Gly*Lys*Arg*Phe*Lys*Lys*Cys*Tyr*] (H-RKCFPYRFRGKRFKKCY-OH; disulfide 3-16; N-terminus and C-terminus assumed) | 1.08 (≈ 0.473 µM) | 1.09 (≈ 0.478 µM) |  |  |
| C[C@@H](O)[C@@H]1NC(=O)[C@H](Cc2ccccc2)NC(=O)[C@@H](NC(=O)[C@H](CCCCN)NC(=O)[C@@H](N)CCCCN)CSSC[C@@H](C(=O)NCC(=O)O)NC(=O)[C@H](CCCCN)NC(=O)[C@H](CCCNC(=N)N)NC(=O)[C@H](Cc2ccc(O)cc2)NC(=O)[C@H](CC(N)=O)NC(=O)[C@H](CCCCN)NC(=O)CNC(=O)[C@H](CCCNC(=N)N)NC(=O)[C@H](Cc2c[nH]c3ccccc23)NC(=O)[C@H](CCCCN)NC(=O)[C@H](Cc2c[nH]c3ccccc23)NC1=O [SEQ.ID.NO.: 6, Lys*Lys*Cys*Phe*Thr*Trp*Lys*Trp*Arg*Gly*Lys*Asn*Tyr*Arg*Lys*Cys*Gly*] (H-KKCFTWKWRGKNYRKCG-OH; disulfide 3-16; N-terminus and C-terminus assumed) | 1.81 (≈ 0.827 µM) | 0.4 (≈ 0.183 µM) |  |  |
| CC(C)C[C@H](NC(=O)[C@@H]1CSSC[C@H](NC(=O)CNC(=O)[C@@H](N)CCCNC(=N)N)C(=O)N[C@@H](Cc2c[nH]c3ccccc23)C(=O)N[C@@H](CCCNC(=N)N)C(=O)N[C@@H](Cc2c[nH]c3ccccc23)C(=O)N[C@@H](CCCCN)C(=O)N[C@@H](Cc2c[nH]c3ccccc23)C(=O)N[C@@H](CCCNC(=N)N)C(=O)NCC(=O)N[C@@H](C(C)C)C(=O)N[C@@H](Cc2c[nH]c3ccccc23)C(=O)N[C@@H](Cc2ccc(O)cc2)C(=O)N[C@@H](CCCCN)C(=O)N[C@@H](CCCCN)C(=O)N1)C(=O)O [SEQ.ID.NO.: 7, Arg*Gly*Cys*Trp*Arg*Trp*Lys*Trp*Arg*Gly*Val*Trp*Tyr*Lys*Lys*Cys*Leu*] (H-RGCWRWKWRGVWYKKCL-OH; disulfide 3-16; N-terminus and C-terminus assumed) | 7.81 (≈ 3.38 µM) | 3.4 (≈ 1.47 µM) |  |  |
| CC(C)C[C@H](NC(=O)[C@@H]1CSSC[C@H](NC(=O)[C@H](CCCCN)NC(=O)CN)C(=O)N[C@@H](Cc2c[nH]c3ccccc23)C(=O)N[C@@H](CCCCN)C(=O)N[C@@H](Cc2c[nH]c3ccccc23)C(=O)N[C@@H](CCCCN)C(=O)N[C@@H](Cc2ccc(O)cc2)C(=O)N[C@@H](CCCNC(=N)N)C(=O)NCC(=O)N[C@@H](Cc2c[nH]cn2)C(=O)N[C@@H](Cc2ccc(O)cc2)C(=O)N[C@@H](Cc2c[nH]c3ccccc23)C(=O)N[C@@H](CCCNC(=N)N)C(=O)N[C@@H]([C@@H](C)O)C(=O)N1)C(=O)O [SEQ.ID.NO.: 8, Gly*Lys*Cys*Trp*Lys*Trp*Lys*Tyr*Arg*Gly*His*Tyr*Trp*Arg*Thr*Cys*Leu*] (H-GKCWKWKYRGHYWRTCL-OH; disulfide 3-16; N-terminus and C-terminus assumed) | 9.26 (≈ 4.08 µM) | 1.81 (≈ 0.797 µM) |  |  |
| CC[C@H](C)[C@@H]1NC(=O)CNC(=O)[C@H](CCCNC(=N)N)NC(=O)[C@H](Cc2c[nH]c3ccccc23)NC(=O)[C@H](CCCCN)NC(=O)[C@H](Cc2c[nH]c3ccccc23)NC(=O)[C@H](CCCCN)NC(=O)[C@H](CC(C)C)NC(=O)[C@@H](NC(=O)[C@H](CC(N)=O)NC(=O)[C@@H](N)CCCCN)CSSC[C@@H](C(=O)N[C@@H](CC(C)C)C(=O)O)NC(=O)[C@H](CCCCN)NC(=O)[C@H](CCCNC(=N)N)NC(=O)[C@H](Cc2ccc(O)cc2)NC(=O)[C@H]([C@@H](C)O)NC1=O [SEQ.ID.NO.: 9, Lys*Asn*Cys*Leu*Lys*Trp*Lys*Trp*Arg*Gly*Ile*Thr*Tyr*Arg*Lys*Cys*Leu*] (H-KNCLKWKWRGITYRKCL-OH; disulfide 3-16; N-terminus and C-terminus assumed) | 7.56 (≈ 3.44 µM) | 2.57 (≈ 1.17 µM) |  |  |
| CC[C@H](C)[C@H](N)C(=O)N[C@@H](CCCNC(=N)N)C(=O)N[C@H]1CSSC[C@@H](C(=O)N[C@@H](CC(C)C)C(=O)O)NC(=O)[C@H](CCCCN)NC(=O)[C@H](CCCCN)NC(=O)[C@H](Cc2c[nH]c3ccccc23)NC(=O)[C@H](CCC(N)=O)NC(=O)[C@H](Cc2c[nH]cn2)NC(=O)CNC(=O)[C@H](CCCNC(=N)N)NC(=O)[C@H](Cc2ccc(O)cc2)NC(=O)[C@H](CC(N)=O)NC(=O)[C@H](Cc2c[nH]c3ccccc23)NC(=O)[C@H]([C@@H](C)O)NC(=O)[C@H](C)NC1=O [SEQ.ID.NO.: 10, Ile*Arg*Cys*Ala*Thr*Trp*Asn*Tyr*Arg*Gly*His*Gln*Trp*Lys*Lys*Cys*Leu*] (H-IRCATWNYRGHQWKKCL-OH; disulfide 3-16; N-terminus and C-terminus assumed) | 24.6 (≈ 11.4 µM) | 12.08 (≈ 5.59 µM) |  |  |
| CC[C@H](C)[C@@H]1NC(=O)CNC(=O)[C@H](CCCNC(=N)N)NC(=O)[C@H](Cc2c[nH]c3ccccc23)NC(=O)[C@H]([C@@H](C)O)NC(=O)[C@H](Cc2c[nH]c3ccccc23)NC(=O)[C@H](CCCCN)NC(=O)[C@H](CC(C)C)NC(=O)[C@@H](NC(=O)[C@H](CC(N)=O)NC(=O)[C@@H](N)CCCNC(=N)N)CSSC[C@@H](C(=O)N[C@@H](CCCCN)C(=O)O)NC(=O)[C@H](CCCCN)NC(=O)[C@H](CC(C)C)NC(=O)[C@H](Cc2ccc(O)cc2)NC(=O)[C@H]([C@@H](C)O)NC1=O [SEQ.ID.NO.: 22, Arg*Asn*Cys*Leu*Lys*Trp*Thr*Trp*Arg*Gly*Ile*Thr*Tyr*Leu*Lys*Cys*Lys*] (H-RNCLKWTWRGITYLKCK-OH; disulfide 3-16; N-terminus and C-terminus assumed) |  |  | 11.72 µg/mL (≈ 5.41 µM) | 1.08 µg/mL (≈ 0.498 µM) |
| AKCRPLHTRGKQSAVCV [Peptide P14, reference compound] |  |  | inactive | inactive |
| ANCWTRKIRGVVGVSCG [Peptide P195, reference compound] |  |  | inactive | inactive |
| FFCGNKRWRGNYQGSCK [Peptide P127, reference compound] |  |  | inactive | inactive |
